Four compounds from patent US10479752B2, “Deuterated tetramethyl dioic acids, compositions comprising them and uses thereof” (SYNDROMEX LTD., priority 2011, dated 2019) can be followed below.

Marks after values point to notes of the source that are not given here.

Series [1] in a line: Chemical and isotopic stability as solutions in DMSO/phosphate buffered saline over 48 hours. The following applies: for analyte recovered, yield: summary over the study; for disenrichment of the product (isotopic stability): throughout the time period of the study.
Procedure: A 1 mg/mL stock solution (˜55 mL) of deuterated compound in DMSO was prepared. A measured volume of stock (7.5 mL) was dispensed in to each of seven vials. To each vial was added a measured volume of PBS (aq) (3.0 mL), and each vial was agitated to mix. The vials were then placed in a thermostatically-controlled oven set to 37° C. At each time-point (0 h, 2 h, 4 h, 24 h, 48 h) a vial was drawn from the oven. To the vial was added MTBE (9.0 mL), and the mixture was stirred vigorously for 5 min. The layers were separated, and the MTBE layer was agitated with DI water (3.75 mL) for 1 min. The layers were separated. The MTBE layer was dried with MgSO4 for >1 h, and then filtered through a PTFE syringe filter into a tared vial. The solution was concentrated in vacuo to a solid residue, and the mass of the residue was calculated and recorded. To the residue a measured volume of MeOH was added to make (theoretically) a 2.5 mg/mL solution. In this case, 3.00 mL MeOH was added to each vial which theoretically contained 7.5 mg of compound. The content of each solution was measured by quantitative HPLC analysis (by comparison to a standard of known concentration). The MeOH solutions were then recovered, concentrated in vacuo to a solid, and then analyzed by GCMS to determine isotopic enrichment as the methyl ester derivatives.
A short description of series [2]: Comparative oral bioavailability / pharmacokinetic study, single intravenous and oral administration. The class given is in vivo. The following applies: rat. The procedure:
The pharmacokinetic properties and the oral bioavailability were investigated for the following comparative compounds:
The plasma concentrations of the test items were measured by LC/MS/MS method following single intravenous and oral administration at the doses of 5 mg/kg body weight and 50 mg/kg body weight, respectively. Following intravenous administration small inter-individual variability was observed. Following i.v administration, the highest plasma concentrations were measured at the first sampling time-point (5 minutes) followed by a biphasic continuous decrease. […] The peak concentrations, tmax and the apparent terminal elimination half-lives (t1/2) were the followings:
The vehicle for oral administration was prepared in advance. Preparation: 1 g of carboxymethylcellulose sodium salt was dissolved in 100 ml of Humaqua. The vehicle was prepared at least 2 days prior to formulation of the test items. The vehicle was stored in a refrigerator when not in use.
The required amount of test item was weighed on an analytical balance, transferred into a suitable vial. The test item was dissolved in the required volume of N,N-dimethylacetamide (40% of the final volume). Dissolution of the test item was facilitated by gentle mixing by vortex. The solution was diluted with the suitable volume of PEG400 (40% of the final volume) then Salsol A (20% of the final volume). The final concentration of the test item in the solution was 5 mg/ml. The formulations were prepared freshly on the day of administration.
The required amount of test item was weighed on an analytical balance, transferred into a test tube and mixed with the suitable volume of 1% CMC to achieve the final concentration of 25 mg/ml. The suspension was sonicated twice in bath sonicator for 30 min at 40 C (each round), and left overnight at room temperature. On the following day, the suspension was sonicated again (bath sonicator, 30 min, 40° C.) and further homogenized in a glass/glass homogenizer trying to reaching an homogenous suspension. In spite of the above procedure the quality (homogeneity) of the suspension was not perfect. The suspension was stored at room temperature till administration.
Species/Strain rat/Wistar (Crl:(WI)BR rats)
Number of animals: 24 males (at least 32 for cannulation*)
After the acclimatization period, rats were equipped with a jugular vein cannula under isoflurane anesthesia. The following day the animals were used for the study. In the morning the rats were checked for health status and blood sampling before assigning them into the experimental group.
The terminal elimination phase was defined on the basis of the last 3-5 measured concentration except rat A4. […] The central volume of distribution (Vc: […]) was approximately equal to the total blood volume. The volume of distribution estimated for the steady state situation (Vss: 97.3-143 ml/kg) remained also small compared to the total extracellular fluid volume (˜300 ml/kg). The clearance was also very small for all experimental compound analogues. The smallest clearance was obtained for Compound 7: 23.2 ml/h/kg.

Setting [3] is: DMSO/PBS solution, 37° C., 24 h.
Where [4] appears, read: DMSO/PBS solution, 37° C., 48 h.
[5] abbreviates: Original Sample (before the stability study).
Where [6] appears, read: DMSO/PBS solution, 37° C., 96 h.

Consider `[2H]C([2H])([2H])C(CCCCCCCCCCCCC(CC(=O)O)(C([2H])([2H])[2H])C([2H])([2H])[2H])(CC(=O)O)C([2H])([2H])[2H]` [Compound 6, 3,3,16,16-[D12]Tetramethyl-1,18-octadecanedioic acid], for which the “GC/MS IE (isotopic enrichment)” value worked out at 99.2% in series [1] (DMSO/PBS solution, 37° C., 0 h); 99.0% in series [1] (DMSO/PBS solution, 37° C., 2 h); 99.1% in series [1] (DMSO/PBS solution, 37° C., 4 h); 99.0% in series [1] (setting [3]); 99.1% in series [1] (setting [4]). In addition, the “HPLC Area Percentage” value in series [1] (DMSO/PBS solution, 37° C., 0 h) was 98.4%; in series [1] (DMSO/PBS solution, 37° C., 2 h) it was 98.6%; in series [1] (DMSO/PBS solution, 37° C., 4 h), 97.9%; in series [1] (setting [3]), 98.5%; in series [1] (setting [4]), 98.7%; in series [1] (setting [5]), 100.0%. Further, the “HPLC Assay” value in series [1] (DMSO/PBS solution, 37° C., 0 h) was determined as 39.0%; in series [1] (DMSO/PBS solution, 37° C., 2 h), 33.1%; in series [1] (DMSO/PBS solution, 37° C., 4 h), 35.6%; in series [1] (setting [3]), 39.8%; in series [1] (setting [4]), 59.6%. The “analyte recovered, yield” value in series [1] (DMSO/PBS solution, 37° C.) is listed as “about 95%”. Further, in series [1] (DMSO/PBS solution, 37° C.), the “disenrichment of the product (isotopic stability)” value was “No disenrichment”.
On to `[2H]C([2H])([2H])C(CCCCCCCCCCCCC(C([2H])([2H])[2H])(C([2H])([2H])[2H])C([2H])([2H])C(=O)O)(C([2H])([2H])[2H])C([2H])([2H])C(=O)O` [Compound 4, 3,3,16,16-[D16]Tetramethyl-1,18-octadecanedioic acid], for which the “GC/MS IE (isotopic enrichment)” value is given as 98.6% in series [1] (DMSO/PBS solution, 37° C., 0 h); 98.4% in series [1] (DMSO/PBS solution, 37° C., 2 h); 98.4% in series [1] (DMSO/PBS solution, 37° C., 4 h); 98.4% in series [1] (setting [3]); 98.3% in series [1] (setting [4]); 98.3% in series [1] (setting [5]). Also, the “HPLC Area Percentage” value in series [1] (DMSO/PBS solution, 37° C., 0 h) is reported as 97.2%; in series [1] (DMSO/PBS solution, 37° C., 2 h), 97.8%; in series [1] (DMSO/PBS solution, 37° C., 4 h) it was 97.5%; in series [1] (setting [3]), 96.5%; in series [1] (setting [4]) it was 97.5%; in series [1] (setting [5]), 99.2%. The “HPLC Assay” value in series [1] (DMSO/PBS solution, 37° C., 0 h) is given as 70.9%; in series [1] (DMSO/PBS solution, 37° C., 2 h), 65.9%; in series [1] (DMSO/PBS solution, 37° C., 4 h) it was 53.8%; in series [1] (setting [3]), 93.8%; in series [1] (setting [4]), 77.6%. Besides, in series [1] (DMSO/PBS solution, 37° C., 48 h study), the “stability results overall, in words” value was “essentially the same as those for Compound 1”.
As to `CC(C)(CCCCCCCCCCC(C)(C)CC(=O)O)CC(=O)O` [Compound 1″, reference compound], in series [2] (5 mg/kg iv dose, Mean CV (%)), the C0 is on record as 56.1 (6.2%) μg/ml and the t1/2 is 2.68 (6.0%) h. Besides, in series [2] (5 mg/kg iv, Mean CV (%)), the AUCinf is on record as 124 (23.6%) h * μg/ml. Moreover, in series [2] (50 mg/kg po dose, Mean CV (%)), the Cmax is on record as 103 (24.2%) μg/ml, the t1/2 is listed as 2.43 (57.6%) h and the tmax is given as 3.5 (79.5%) h. The “F (oral bioavailability)” value in series [2] (50 mg/kg po vs 5 mg/kg iv, Mean (CV %)) was 69.6 (29.4) %. The AUCinf in series [2] (50 mg/kg po, Mean CV (%)) is 863 (29.4%) h * μg/ml.
On to `[2H]C([2H])(C(=O)O)C(C)(C)CCCCCCCCCCCCC(C)(C)C([2H])([2H])C(=O)O` [Compound 5, 3,3,16,16-tetramethyl-1,18-[2-D2,17-D2]octadecanedioic acid], for which the “GC/MS IE (isotopic enrichment)” value is 96.3% in series [1] (DMSO/PBS solution, 37° C., 0 h); 95.9% in series [1] (DMSO/PBS solution, 37° C., 2 h); 96.0% in series [1] (DMSO/PBS solution, 37° C., 4 h); 96.0% in series [1] (setting [3]); 95.5% in series [1] (setting [4]); 96.1% in series [1] (setting [6]). The “HPLC Area Percentage” value in series [1] (DMSO/PBS solution, 37° C., 0 h) turned out to be 98.4%; in series [1] (DMSO/PBS solution, 37° C., 2 h), 98.0%; in series [1] (DMSO/PBS solution, 37° C., 4 h) it was 98.5%; in series [1] (setting [3]), 98.4%; in series [1] (setting [4]), 98.0%; in series [1] (setting [6]) it was 98.7%. Also, the “HPLC Area Percentage” value in series [1] (setting [5]) came out at 100.0%. For the same compound, the “HPLC Assay” value in series [1] (DMSO/PBS solution, 37° C., 0 h) is given as 57.0%; in series [1] (DMSO/PBS solution, 37° C., 2 h) it was 44.6%; in series [1] (DMSO/PBS solution, 37° C., 4 h), 46.3%; in series [1] (setting [3]), 95.3%; in series [1] (setting [4]) it was 213.8%*; in series [1] (setting [6]), 79.8%. In addition, the “analyte recovered, yield” value in series [1] (DMSO/PBS solution, 37° C.) is “about 95%”. For the same compound, the “disenrichment of the product (isotopic stability)” value in series [1] (DMSO/PBS solution, 37° C.) was “No disenrichment”.
